The source of these data is patent US20250325717A1, “ANTI-NUCLEOPHOSMIN 1 ANTIBODY AND ANTIBODY CONJUGATE COMBINATION THERAPIES” (The Children's Medical Center Corporation, priority 2022, published 2025).

Experiment [1] concerns NPM1 on the surface of OCI-AML3 cells. Nature of the experiment: Effect of chemotherapeutics on anti-NPM1 antibody binding to OCI-AML3 cell surface. The format is cell-based, human.
For a further experiment, the system named is OCI-AML3 cells. Nature of the experiment: Low dose chemotherapeutics: induction of cell surface NPM1 on OCI-AML3 cells. The format is cell-based, human. The note with it: daunorubicin 10 nanomolar (nm), venetoclax 40 nm; for NPM1 on the cell surface: 48 hrs. As to the method: To determine whether low doses of chemotherapeutic agents, daunorubicin and venetoclax, induce cell surface NPM1, OCI-AML3 cells were exposed to either control or a low dose of a chemotherapeutic treatment. OCI-AML3 cells are resistant to BLC2i. Daunorubicin was administered at 10 nanomolar (nm) and venetoclax was administered at 40 nm. Administration of daunorubicin increased NPM1 on the cell surface at 48 hrs and maintained higher expression for at least 9 days. Administration of venetoclax and separately 5-Aza increased NPM1 at 48 hrs and maintained higher expression for at least 7 days (FIG. 32).

The test system of experiment [2] is normal myeloid progenitor line HOXB8. Nature of the experiment: Low dose chemotherapeutics: cell surface NPM1 on non-transformed HOXB8 cells. Type of experiment: cell-based. The conditions noted are these: daunorubicin 10 nM, venetoclax 40 nM, 48 and 72 hours. As to the method: (§1) The ability of low doses of chemotherapeutic agents, daunorubicin and venetoclax, to induce cell surface NPM1 on non-transformed cells was tested. Normal hematopoietic precursor cell line HPC7 and normal myeloid progenitor line HOXB8 were exposed to either control or a low dose of a chemotherapeutic treatment. Doses of daunorubicin and venetoclax were administered at 10 nanomolar (nM) and 40 nM, respectively. The results of the antibody binding measured by flow cytometry show no change in the low dose chemotherapeutic compared to controls (FIG. 33).

The test system of experiment [3] is Normal hematopoietic precursor cell line HPC7. Nature of the experiment: Low dose chemotherapeutics: cell surface NPM1 on non-transformed HPC7 cells. The format is cell-based. The conditions noted are these: daunorubicin 10 nM, venetoclax 40 nM, 48 and 72 hours. The procedure: as §1
A further experiment has as its target T1, murine NPM1 (murine, UniProt Q61937 1-292).
T1 construct: also called NPM1 on primary murine MLL-rearranged (MLL-r) AML cells; NPM1 on MLL-AF9/Flt3-ITD AML cells
Nature of the experiment: FACS, primary murine MLL-r AML cells. (In general: A flow cytometer gives signals particle by particle.)

Experiment [4] has as its target T2, human nucleophosmin 1 (NPM1) (human, UniProt P06748 1-294).
T2 construct: In the blots it is NPM1 from lysates or membrane fractions, not on cells; also called WT NPM1; wild-type NPM1
Nature of the experiment: FACS, human AML PDX cells (PDX-1, PDX-3, PDX-4).

The subject of experiment [5] is host murine bone marrow cells. Nature of the experiment: FACS binding to host murine bone marrow cells of PDX mice. Type of experiment: cell-based. The conditions noted are these: host bone marrow of PDX mouse model. The source says: (§2) Given that a variety of murine and human leukemia cell lines express cell surface WT and/or mutant NPM1, it was subsequently assessed whether the isolated antibodies could also bind to the surface of these cells. […] These antibodies could further be used in other applications, including, for example, diagnostic agents by instead conjugating the antibodies with an imaging agent, which can in turn be used to locate and measure the relative abundance of cancer cells in a patient.

Experiment [6] concerns NPM1 on human patient derived xenograft (PDX) cells. Nature of the experiment: FACS binding to human PDX cells transplanted into a mouse model. The format is cell-based.
Text: as §2

Experiment [7] addresses T3, surface localized NPM1 on primary murine MLL-rearranged AML cells (Mus musculus, UniProt Q61937).
T3 construct: endogenous in cells; host or cells: primary murine MLL-rearranged AML cells
Nature of the experiment: FACS binding to primary murine MLL-rearranged AML cells. The format is cell-based.
Text: as §2

Experiment [8] deals with surface localized NPM1 on primary murine NPM1c AML cells. Nature of the experiment: FACS binding to primary murine NPM1c AML cells. Type of experiment: cell-based.
Text: as §2

T3 sequence (Q61937 whole entry): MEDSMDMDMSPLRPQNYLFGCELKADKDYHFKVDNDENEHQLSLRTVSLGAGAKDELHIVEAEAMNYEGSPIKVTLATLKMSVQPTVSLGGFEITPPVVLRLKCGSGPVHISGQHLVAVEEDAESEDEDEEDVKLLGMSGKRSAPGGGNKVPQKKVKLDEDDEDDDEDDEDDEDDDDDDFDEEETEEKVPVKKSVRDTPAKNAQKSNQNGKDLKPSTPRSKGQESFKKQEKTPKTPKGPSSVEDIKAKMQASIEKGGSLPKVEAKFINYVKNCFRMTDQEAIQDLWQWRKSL
T1 sequence (Q61937 whole entry): as above
T2 sequence (P06748 whole entry): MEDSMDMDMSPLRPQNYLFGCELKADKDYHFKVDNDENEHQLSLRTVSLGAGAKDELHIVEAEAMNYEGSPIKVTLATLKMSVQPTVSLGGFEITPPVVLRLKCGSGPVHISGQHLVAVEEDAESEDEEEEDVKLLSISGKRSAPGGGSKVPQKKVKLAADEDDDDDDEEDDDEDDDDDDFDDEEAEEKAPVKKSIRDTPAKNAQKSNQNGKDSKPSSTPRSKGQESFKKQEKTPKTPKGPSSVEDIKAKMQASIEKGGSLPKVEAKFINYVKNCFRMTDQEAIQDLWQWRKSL

Regarding `Nc1ncn([C@@H]2O[C@H](CO)[C@@H](O)[C@H]2O)c(=O)n1` [5-azacytidine], in experiment [1] (40 nM 5-azacytidine), the “binding of anti-NPM1 antibodies to NPM1 on the surface of OCI-AML3 cells” value is on record as “The same effect was observed”. In addition, the “binding between the isolated anti-mutant NPM1 and OCI-AML3 cells” value in [1] (after only 24 hours of treatment with 5-Aza) was “substantially enhanced”. The “NPM1 on the cell surface” value in the experiment on OCI-AML3 cells is “increased”.
Turning to `COc1cccc2c1C(=O)c1c(O)c3c(c(O)c1C2=O)C[C@@](O)(C(C)=O)C[C@@H]3O[C@H]1C[C@H](N)[C@H](O)[C@H](C)O1` [daunorubicin], the “antibody binding (cell surface NPM1) compared to controls” value in experiment [2] and in experiment [3] was “no change” throughout. Besides, the “binding between the isolated anti-WT NPM1 and anti-mutant NPM1 antibody and NPM1 on the surface of OCI-AML3 cells” value in experiment [1] (10 nM daunorubicin or 40 nM venetoclax) is on record as “enhanced binding”. The “binding of anti-NPM1 antibody (Merck/Sigma anti-B23 #B0556) to cells” value in experiment [1] (8 days post-treatment, 10 nM daunorubicin or 40 nM venetoclax) is “substantially enhanced”; in experiment [1] (after 48 hours of treatment, 10 nM daunorubicin or 40 nM venetoclax), “enhanced”. Moreover, the “NPM1 on the cell surface” value in the experiment with OCI-AML3 cells is “increased”. Further, the “time for which higher NPM1 expression was maintained” value with OCI-AML3 cells was “at least 9 days”.

B1: Ab1 anti-NPM1 antibody (antibody, mouse IgG2a, kappa, V domains shown)
VH: EVQLQQSVAELVRPGASVKLSCTASGFNIKNIFVHWVKQRPEQGLEWIGKIDPANDNTKFAPNFQGKAAISADTSSNTAYLQLSSLTSEDTAIYYCASDSSGYDAVDYWGQGTSVTVSS
VL: DIQMTQSPASLSASVGETVTITCRASESVYTYLAWYQQKQGKSPQLLVYNAKTLTEGVPSRFSGSGSGTQFSLRINSLQPEDFGSYYCQHHYGTPYTFGSGTKLEIKR
notes: also called isolated anti-WT NPM1 antibody
Turning to B1, the binding result (in the experiment with murine NPM1; in experiment [4]) was “binds” throughout.

B2: Ab1 (antibody)
heavy: EVQLQQSVAELVRPGASVKLSCTASGFNIKNIFVHWVKQRPEQGLEWIGKIDPANDNTKFAPNFQGKAAISADTSSNTAYLQLSSLTSEDTAIYYCASDSSGYDAVDYWGQGTSVTVSSAKTTAPSVYPLAPVCGDTTGSSVTLGCLVKGYFPEPVTLTWNSGSLSSGVHTFPAVLQSDLYTLSSSVTVTSSTWPSQSITCNVAHPASSTKVDKKIEPRGPTIKPCPPCKCPAPNLLGGPSVFIFPPKIKDVLMISLSPIVTCVVVDVSEDDPDVQISWFVNNVEVHTAQTQTHREDYNSTLRVVSALPIQHQDWMSGKEFKCKVNNKDLPAPIERTISKPKGSVRAPQVYVLPPPEEEMTKKQVTLTCMVTDFMPEDIYVEWTNNGKTELNYKNTEPVLDSDGSYFMYSKLRVEKKNWVERNSYSCSVVHEGLHNHHTTKSFSRTPGK
light: DIQMTQSPASLSASVGETVTITCRASESVYTYLAWYQQKQGKSPQLLVYNAKTLTEGVPSRFSGSGSGTQFSLRINSLQPEDFGSYYCQHHYGTPYTFGSGTKLEIKRADAAPTVSIFPPSSEQLTSGGASVVCFLNNFYPKDINVKWKIDGSERQNGVLNSWTDQDSKDSTYSMSSTLTLTKDEYERHNSYTCEATHKTSTSPIVKSFNRNEC
Regarding B2, the “binding to host murine bone marrow cells” value in [5] is recorded as “without binding”. The “binding to NPM1 on PDX cells” value in experiment [6] was “bound”. In addition, the “binding to surface localized NPM1” value in experiment [7] and in experiment [8] was “capable of binding” throughout.
